Measurements taken from patent EP0302407A2, “Metallic complexes of streptogramin-B, their preparation and their use in animal food” (HOECHST AKTIENGESELLSCHAFT, priority 1987, dated 1989).
Marks after values point to notes of the source that are not given here.

Tests used:
Assay type in all cases: in vivo
männlichen Mastküken [1] = test: Feeding trial with broiler chicks, Beispiel I (6 weeks); conditions: for Mortalität: 60480 min
Text: Ein Fütterungsversuch mit Etamycin-Cu-Komplex gemäß Herstellungsbeispiel 2 wurde mit 120 männlichen Mastküken in 3 Gruppen zu je 40 Küken durchgeführt, die in beheizten Batterien (5 Küken bei 8 Wiederholungen) gehalten wurden. Folgende Präparate und Dosierungen wurden eingesetzt:
Das Grundfutter hatte eine handelsübliche Zusammensetzung mit 13,0 MJ/kg = 3100 kcal/kg und einem Rohproteingehalt von 22 %, bei einem normgerechten Aminosäuren-, Vitamin-, Mineralstoff- und Spurenelementgehalt.
(§1) Der Versuch lief über 6 Wochen. Futter und Trinkwasser wurden nach Belieben angeboten. Die Tiere wurden wöchentlich einzeln gewogen, die Lebendmasse(LM)-Zunahmen errechnet, die Futteraufnahme bestimmt und aus Futteraufnahme : LM-Zunahme der Futteraufwand errechnet. Die Mortalität wurde erfaßt und aus all diesen Parametern die Produktionszahl (PZ) errechnet. [formula]

[2] = system: männlichen Mastküken (Lohmann); test: Feeding trial with broiler chicks, Beispiel II (42 days)
Text: as §1
In einem Mastküken-Versuch über 42 Tage wurde mit 144 männlichen Mastküken (Lohmann) 3 x 48 Küken (8 Wiederholungen x 6 Tiere) der Einfluß von Etamycin-Cu-Komplex gemäß Beispiel I in Dosierungen von 5 und 10 ppm gegenüber Negativ-Kontrollen ohne Zusatz geprüft. Haltung und Fütterung waren die gleichen wie in Beispiel I.

männlichen Mastküken [3] = test: Feeding trial with broiler chicks, Beispiel IV (5 weeks); conditions: for Mortalität: 50400 min
Text: as §1
Mit 96 männlichen Mastküken wurde in 3 Gruppen zu je 32 Mastküken (4 Wiederholungen x 8 Tiere) über 5 Wochen der Einfluß des Etamycin-Mn-Komplexes gemäß Beispiel 10 in Dosierungen von 5 und 10 ppm im Vergleich zu einer Negativ-Kontrolle (ohne Zusatz) geprüft. Die Haltungs- und Fütterungsbedingungen sowie die Auswertung waren die gleichen wie in Beispiel I.

Mastküken = test: Feeding trial with broiler chicks, Beispiel III (6 weeks); conditions: 10 mg/kg Futter (ppm)
Text: as §1
In einem weiteren Mastküken-Versuch wurde der Einfluß von Etamycin-Zn-Komplex gemäß Beispiel 4 in einer Dosierung von 10 ppm im Vergleich zu einer Negativ-Kontrolle wie im Beispiel I geprüft. Zum Einsatz kamen 36 Mastküken (6 Wiederholungen x 6 Tiere), bei einer Versuchszeit von 6 Wochen. Haltungs- und Fütterungsbedingungen waren die gleichen wie im Beispiel I.

[4] = 5 mg/kg Futter (ppm), Futteraufnahme : LM-Zunahme
[5] = 5 mg/kg Futter (ppm), control = 100
[6] = 20 mg/kg Futter (ppm), control = 100
[7] = 10 mg/kg Futter (ppm), Futteraufnahme : LM-Zunahme
[8] = 10 mg/kg Futter (ppm), control = 100

“Etamycin-Kupfer-(II)-komplex (Et₂ x Cu(II)) [Etamycin-Cu-Komplex]” was tested, and the Futteraufnahme (männlichen Mastküken [1]; 5 mg/kg Futter (ppm)) was 2561 g, the LM-Zunahme (männlichen Mastküken [1]; 5 mg/kg Futter (ppm)) was 1439 * g and the Produktionszahl (männlichen Mastküken [1]; 5 mg/kg Futter (ppm)) was 154. For the same substance, the Mortalität (männlichen Mastküken [1]; 5 mg/kg Futter (ppm)) was 20%, the Futteraufwand (männlichen Mastküken [1]; [4]) was 1,78 and the Futteraufnahme (männlichen Mastküken [1]; [5]) was 101,2 rel.%. The Futteraufwand (männlichen Mastküken [1]; [5]) was 92,7 rel. %, the LM-Zunahme (männlichen Mastküken [1]; [5]) was 109,0 rel.% and the Futteraufnahme (männlichen Mastküken [1]; 20 mg/kg Futter (ppm)) was 2644 g. The LM-Zunahme (männlichen Mastküken [1]; 20 mg/kg Futter (ppm)) was 1442 * g, the Produktionszahl (männlichen Mastküken [1]; 20 mg/kg Futter (ppm)) was 173 and the Mortalität (männlichen Mastküken [1]; 20 mg/kg Futter (ppm)) was 7,5%. For the same substance, the Futteraufwand (männlichen Mastküken [1]; 20 mg/kg Futter (ppm), Futteraufnahme : LM-Zunahme) was 1,83, the Futteraufnahme (männlichen Mastküken [1]; [6]) was 104,5 rel.% and the Futteraufwand (männlichen Mastküken [1]; [6]) was 95,3 rel. %. The LM-Zunahme (männlichen Mastküken [1]; [6]) was 109.2 rel.%, the Futteraufnahme ([2]; 5 mg/kg Futter (ppm)) was 3260 g and the LM-Zunahme ([2]; 5 mg/kg Futter (ppm)) was 1699 * g. The Mortalität ([2]; 5 mg/kg Futter (ppm)) was 2,1%, the Produktionszahl ([2]; 5 mg/kg Futter (ppm)) was 207 and the Futteraufwand [2, 4] was 1,92. The Futteraufnahme [2, 5] was 106,3 rel.%, the Futteraufwand [2, 5] was 97,5 rel. % and the LM-Zunahme [2, 5] was 109,0 rel.%. The Futteraufnahme ([2]; 10 mg/kg Futter (ppm)) was 3099 g, the LM-Zunahme ([2]; 10 mg/kg Futter (ppm)) was 1673 * g and the Mortalität ([2]; 10 mg/kg Futter (ppm)) was 6,3%. The Produktionszahl ([2]; 10 mg/kg Futter (ppm)) was 202, the Futteraufwand [2, 7] was 1,85 and the Futteraufnahme [2, 8] was 101,0 rel.%. The Futteraufwand [2, 8] was 93,9 rel. % and the LM-Zunahme [2, 8] was 107,3 rel.%.
In the case of “Etamycin-Mangan (II)-komplex Et₂ x Mn(II) [Etamycin-Mn-Komplex]”, the Futteraufnahme (männlichen Mastküken [3]; 5 mg/kg Futter (ppm)) is reported as 2334 g, the LM-Zunahme (männlichen Mastküken [3]; 5 mg/kg Futter (ppm)) is reported as 1394 * g and the Produktionszahl (männlichen Mastküken [3]; 5 mg/kg Futter (ppm)) is reported as 222. The Mortalität (männlichen Mastküken [3]; 5 mg/kg Futter (ppm)) was 0%, the Futteraufwand (männlichen Mastküken [3]; [4]) was 1,67 and the Futteraufnahme (männlichen Mastküken [3]; [5]) was 100 rel.%. The Futteraufwand (männlichen Mastküken [3]; [5]) was 93,8 rel. %, the LM-Zunahme (männlichen Mastküken [3]; [5]) was 106,4 rel.% and the Futteraufnahme (männlichen Mastküken [3]; 10 mg/kg Futter (ppm)) was 2413 g. For the same substance, the LM-Zunahme (männlichen Mastküken [3]; 10 mg/kg Futter (ppm)) was 1419 * g, the Produktionszahl (männlichen Mastküken [3]; 10 mg/kg Futter (ppm)) was 222 and the Mortalität (männlichen Mastküken [3]; 10 mg/kg Futter (ppm)) was 0%. For the same substance, the Futteraufwand (männlichen Mastküken [3]; [7]) was 1,70, the Futteraufnahme (männlichen Mastküken [3]; [8]) was 103,4 rel.% and the Futteraufwand (männlichen Mastküken [3]; [8]) was 95,5 rel. %. The LM-Zunahme (männlichen Mastküken [3]; [8]) was 108,3 rel.%.
“Etamycin-Zn(II)-komplex (Et₂ x Zn(II)) [Etamycin-Zn-Komplex]” was tested, and the Futteraufnahme (Mastküken) was 3041 g, the LM-Zunahme (Mastküken) was 1748 * g and the Produktionszahl (Mastküken) was 228. For the same substance, the Mortalität (Mastküken; 60480 min) was 5,6%, the Futteraufwand (Mastküken; Futteraufnahme : LM-Zunahme) was 1,74 and the Futteraufnahme (Mastküken; control = 100) was 102,5 rel.%. The Futteraufwand (Mastküken; control = 100) was 93,5 rel. % and the LM-Zunahme (Mastküken; control = 100) was 109,4 rel.%.
